The values that follow come from patent US20240279231A1, “MAP4K4 INHIBITORS AND METHODS OF SYNTHESIS AND USE THEREOF” (The Board of Regents of the University of Oklahoma, priority 2021, published 2024).

In data set [1] the target is T1, recombinant MAP4K4 enzyme (Homo sapiens, UniProt O95819).
T1 construct: purchased BioAssay Systems Services (Hayward, CA)
Nature of the data set: MAP4K4 inhibition assay (cell free, MBP substrate, ADP detection). The class given is biochemical. As to conditions: for IC50: recombinant MAP4K4, MBP substrate, 48 μM ATP, compounds titrated from 900 nM, read-out: concentration for 50% inhibition of MAP4K4 (IC50). The protocol:
MAP4K4 inhibition assay: MAP4K4 assay for IC50 determination was performed using a kit by BioAssay Systems Services (Hayward, CA). Briefly, MAP4K4 in assay buffer (40 ng in 10 μL) was incubated with varying concentrations of test compounds (5 μL in dimethylsulfoxide) for 15 min at 37° C. The compounds were titrated from 900 nM (final reaction concentration) in 3× steps. Compound dilutions were made in assay buffer with 0.036% dimethylsulfoxide. Reactions were initiated by adding 5 μL reaction mix (2.6 μg/μL MBP, 193 μM ATP; final reaction concentration of 13 μg MBP, 48 μM ATP) and run at 37° C. for 20 min. These kinase reactions were stopped with an ADP detection reagent and fluorescence was measured at 530Ex/590Em. IC50 was computed using GraphPad Prism Nonlinear Sigmoidal Dose-Response fitting.
MAP4K4 inhibition assay: The MAP4K4 inhibitory activity of DMX-5804, Ribose-analog 9, and regio-isomer 7 were examined in a cell free assay using recombinant MAP4K4 enzyme and myelin basic protein (MBP) as its substrate.

Data set [2] can be described thus: Stability on reflux in dioxane-HCl. Type of data set: physicochemical. As to conditions: refluxed in dioxane-HCl for 6 h. The protocol:
(§1) First, we attempted base-catalyzed O-alkylation in a variety of conditions (Table 1). […] We also screened various solvents combined with different bases to get DMX-5804. […] However, DMX-5804 was obtained only in small amounts (5-7%), whereas compound 7 was isolated as the major product (88%). To check the stability of compound 7, we refluxed it in dioxane-HCl for 6 h. […] Also, its HPLC retention time was identical to that of DMX-5804 (data not shown).

The nature of data set [3]: Solubility in polar solvents. The conditions noted are these: compared with DMX-5804. Type of data set: physicochemical. The protocol: as §1
For data set [4] the following is noted: compared with F1386-0303; cited from earlier work.
A further data set concerns cardiomyocyte. The conditions noted are these: oxidative stress-induced, in vitro and in vivo; cited from earlier work.
The conditions of data set [5]: mouse infarct model; cited from earlier work.
A short description of data set [6]: Solubility in aqueous medium. The class given is physicochemical. From the text:
In order to shift alkylation to desired phenolic site, we changed reaction conditions to acidic by using boron trifluoride diethyl etherate as a Lewis acid (entries 9-11 of Table 1). […] Hypothesizing that the relatively low separated yields of this reaction are due to the insolubility of phenolic derivative in dichloromethane, we decided to perform this reaction in neat conditions with BF3OEt2. This modification produced satisfactory yields of DMX-5804 (entry 10). Further, we added excess of methylglycol as a solvent as well as a reactant in presence of BF3OEt2 to obtain quantitative yields of DMX-5804 in good time (entry 11). In these acidic conditions, the other regioisomer (pyrimidine alkylated compound 7) was completely absent. Previously, the use of BF3OEt2 for phenolic alkylation has been reported. In addition to the compound DMX-5804, we employed this route for synthesis of ribose- and glucose-conjugated analogs. […]

T1 sequence (O95819 whole entry): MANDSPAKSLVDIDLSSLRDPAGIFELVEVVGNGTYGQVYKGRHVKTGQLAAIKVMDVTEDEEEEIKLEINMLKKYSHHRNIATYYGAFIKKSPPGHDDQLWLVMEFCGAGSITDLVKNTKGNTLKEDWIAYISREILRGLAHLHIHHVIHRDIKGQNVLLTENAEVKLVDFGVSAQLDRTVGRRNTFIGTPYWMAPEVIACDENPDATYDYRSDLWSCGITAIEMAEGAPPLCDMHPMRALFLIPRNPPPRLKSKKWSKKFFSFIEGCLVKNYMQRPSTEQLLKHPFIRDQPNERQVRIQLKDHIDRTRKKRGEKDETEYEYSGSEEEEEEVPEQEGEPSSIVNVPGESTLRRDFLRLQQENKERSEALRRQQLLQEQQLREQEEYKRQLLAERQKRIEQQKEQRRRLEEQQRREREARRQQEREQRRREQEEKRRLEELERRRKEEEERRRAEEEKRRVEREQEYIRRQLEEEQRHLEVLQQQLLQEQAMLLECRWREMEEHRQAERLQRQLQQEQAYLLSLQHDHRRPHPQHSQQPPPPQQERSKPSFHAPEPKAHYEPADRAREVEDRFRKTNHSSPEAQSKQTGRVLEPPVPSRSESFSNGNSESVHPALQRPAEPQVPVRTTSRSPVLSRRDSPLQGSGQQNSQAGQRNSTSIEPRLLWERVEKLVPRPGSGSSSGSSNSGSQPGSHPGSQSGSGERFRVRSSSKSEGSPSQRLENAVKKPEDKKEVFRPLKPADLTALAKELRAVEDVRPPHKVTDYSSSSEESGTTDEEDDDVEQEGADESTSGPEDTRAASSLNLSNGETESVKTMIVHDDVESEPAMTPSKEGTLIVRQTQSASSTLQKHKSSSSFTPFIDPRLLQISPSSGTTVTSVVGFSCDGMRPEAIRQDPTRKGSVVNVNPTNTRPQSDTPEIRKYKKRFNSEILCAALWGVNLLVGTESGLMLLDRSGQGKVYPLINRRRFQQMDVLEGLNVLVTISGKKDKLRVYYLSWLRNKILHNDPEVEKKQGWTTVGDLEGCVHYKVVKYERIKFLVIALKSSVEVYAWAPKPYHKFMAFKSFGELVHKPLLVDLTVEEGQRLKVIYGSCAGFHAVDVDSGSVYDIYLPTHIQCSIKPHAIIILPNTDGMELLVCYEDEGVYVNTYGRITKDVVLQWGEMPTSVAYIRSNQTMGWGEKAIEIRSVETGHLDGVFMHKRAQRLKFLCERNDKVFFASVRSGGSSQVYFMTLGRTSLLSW

`COCCOc1ncnc2c1c(-c1ccc(O)cc1)cn2-c1ccccc1` (single isomer, unassigned) [Compound 7, 4-(4-(2-methoxyethoxy)-7-phenyl-7H-pyrrolo[2,3-d]pyrimidin-5-yl)phenol] registered a melting point of 221 to 224 °C. In addition, the MAP4K4 inhibitory activity result in data set [1] (concentration range tested (titrated from 900 nM in 3× steps)) is recorded as “no inhibitory activity in the concentration range tested”. Also, in data set [2], the “stability in acidic conditions” value is “stable in acidic conditions”. Also, the “solubility in polar solvents” value in data set [3] is listed as “significantly better than DMX-5804”.

Take `O=c1[nH]cnc2c1c(-c1ccc(OC3OC(CO)C(O)C3O)cc1)cn2-c1ccccc1` (stereo not shown) [Compound 9, 5-(4-((3,4-dihydroxy-5-(hydroxymethyl)tetrahydrofuran-2-yl)oxy)phenyl)-7-phenyl-3,7-dihydro-4H-pyrrolo[2,3-d]pyrimidin-4-one]: the IC50 in data set [1] stood at 256 nM.

As to `COCCOc1ccc(-c2cn(-c3ccccc3)c3nc[nH]c(=O)c23)cc1` [DMX-5804, 5-(4-(2-methoxyethoxy)phenyl)-7-phenyl-3,7-dihydro-4H-pyrrolo[2,3-d]pyrimidin-4-one], the bioavailability in vivo result in data set [4] is recorded as “better bioavailability in vivo than F1386-0303”. The cardiomyocyte death result in the data set on cardiomyocyte was “reduces cardiomyocyte death both in vitro and in vivo”. In addition, in data set [1], the IC50 was 206 nM. For the same compound, the infarct size entry in data set [5] is “significant reduction of infarct size”. Besides, in data set [6], the “solubility in aqueous medium” value is “virtually insoluble”.

Broadly, the melting point is the temperature of the solid-liquid transition.
